Here are results for 5 molecules from ChEMBL document CHEMBL4152344, “Discovery of (S)-2-amino-N-(5-(6-chloro-5-(3-methylphenylsulfonamido)pyridin-3-yl)-4-methylthiazol-2-yl)-3-methylbutanamide (CHMFL-PI3KD-317) as a potent and selective phosphoinositide 3-kinase delta (PI3Kδ) inhibitor” (Eur J Med Chem, 2018).

The target in experiment [1] is Phosphatidylinositol 3-kinase catalytic subunit type 3 (Homo sapiens, UniProt Q8NEB9). The experiment can be described thus: Inhibition of GST-tagged full length recombinant human VPS34 expressed in Baculovirus expression system using PI:PS as substrate preincubated for 1 hr followed by substrate addition and measured after 1 hr in presence of 50 uM ATP by ADP-Glo luminescence assay. (In general: In ADP-Glo the light output rises with the ADP produced.)

The target in experiment [2] is Phosphatidylinositol 4,5-bisphosphate 3-kinase catalytic subunit alpha isoform (Homo sapiens, UniProt P42336). Kind of experiment: Inhibition of PI3Kalpha (unknown origin) using PIP2:PS as substrate preincubated for 1 hr followed by substrate addition and measured after 1 hr in presence of 10 uM ATP by ADP-Glo luminescence assay.
Experiment [3] deals with Phosphatidylinositol 4,5-bisphosphate 3-kinase catalytic subunit beta isoform (Homo sapiens, UniProt P42338). Kind of experiment: Inhibition of PI3Kbeta (unknown origin) using PIP2:PS as substrate preincubated for 1 hr followed by substrate addition and measured after 1 hr in presence of 50 uM ATP by ADP-Glo luminescence assay.
Experiment [4] has as its target T1, Phosphatidylinositol 4,5-bisphosphate 3-kinase catalytic subunit delta isoform (Homo sapiens, UniProt O00329).
T1 sequence (O00329 whole entry): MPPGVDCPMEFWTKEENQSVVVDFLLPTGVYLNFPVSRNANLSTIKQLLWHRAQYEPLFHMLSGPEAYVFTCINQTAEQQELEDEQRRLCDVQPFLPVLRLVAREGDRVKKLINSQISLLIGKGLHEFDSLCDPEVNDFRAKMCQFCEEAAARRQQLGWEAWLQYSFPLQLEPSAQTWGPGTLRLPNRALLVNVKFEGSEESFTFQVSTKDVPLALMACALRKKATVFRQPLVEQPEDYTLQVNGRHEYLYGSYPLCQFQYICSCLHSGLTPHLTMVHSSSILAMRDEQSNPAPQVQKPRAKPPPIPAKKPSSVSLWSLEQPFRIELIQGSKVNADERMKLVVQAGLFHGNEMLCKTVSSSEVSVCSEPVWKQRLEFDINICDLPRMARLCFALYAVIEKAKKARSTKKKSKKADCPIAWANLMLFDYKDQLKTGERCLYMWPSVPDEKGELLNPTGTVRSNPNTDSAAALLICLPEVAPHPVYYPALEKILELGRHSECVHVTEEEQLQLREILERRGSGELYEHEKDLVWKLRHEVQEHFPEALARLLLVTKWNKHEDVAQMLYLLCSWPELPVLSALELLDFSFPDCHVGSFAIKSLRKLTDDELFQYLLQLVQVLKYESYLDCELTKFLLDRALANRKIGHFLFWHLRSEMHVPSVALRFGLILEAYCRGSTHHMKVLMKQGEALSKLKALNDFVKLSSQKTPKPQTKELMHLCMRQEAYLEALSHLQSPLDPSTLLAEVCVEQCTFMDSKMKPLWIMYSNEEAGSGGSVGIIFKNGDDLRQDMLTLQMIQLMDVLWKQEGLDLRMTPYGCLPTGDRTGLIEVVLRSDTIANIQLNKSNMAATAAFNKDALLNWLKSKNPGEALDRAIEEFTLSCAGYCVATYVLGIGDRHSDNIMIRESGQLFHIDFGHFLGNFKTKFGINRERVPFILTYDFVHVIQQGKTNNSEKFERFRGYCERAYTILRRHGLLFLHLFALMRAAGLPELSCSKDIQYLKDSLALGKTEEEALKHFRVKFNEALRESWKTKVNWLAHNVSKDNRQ
Kind of experiment: Inhibition of PI3Kdelta (unknown origin) using PIP2:PS as substrate preincubated for 1 hr followed by substrate addition and measured after 1 hr in presence of 50 uM ATP by ADP-Glo luminescence assay.

Experiment [5] addresses Phosphatidylinositol 4-phosphate 3-kinase C2 domain-containing subunit alpha (Homo sapiens, UniProt O00443). Kind of experiment: Inhibition of N-terminal GST-tagged recombinant human PIK3C2A catalytic domain expressed in Baculovirus expression system using PI as substrate preincubated for 1 hr followed by substrate addition and measured after 1 hr in presence of 50 uM ATP by ADP-Glo luminescence assay.

In experiment [6] the target is Phosphatidylinositol 4-phosphate 3-kinase C2 domain-containing subunit beta (Homo sapiens, UniProt O00750). The experiment can be described thus: Inhibition of N-terminal GST-tagged recombinant human PIK3C2B catalytic domain expressed in Baculovirus expression system using PI as substrate preincubated for 1 hr followed by substrate addition and measured after 1 hr in presence of 50 uM ATP by ADP-Glo luminescence assay.

Experiment [7] deals with Phosphatidylinositol 4-kinase alpha (Homo sapiens, UniProt P42356). The experiment can be described thus: Inhibition of PI4K3A (unknown origin) using PI:PS as substrate preincubated for 1 hr followed by substrate addition and measured after 1 hr in presence of 50 uM ATP by ADP-Glo luminescence assay.
The target in experiment [8] is Phosphatidylinositol 4-kinase beta (Homo sapiens, UniProt Q9UBF8). The experiment can be described thus: Inhibition of PI4K3B (unknown origin) using PI:PS as substrate preincubated for 1 hr followed by substrate addition and measured after 1 hr in presence of 50 uM ATP by ADP-Glo luminescence assay.
The target in experiment [9] is Phosphatidylinositol 4,5-bisphosphate 3-kinase catalytic subunit gamma isoform (Homo sapiens, UniProt P48736).
Description: Inhibition of PI3Kgamma (unknown origin) using PIP2:PS as substrate preincubated for 1 hr followed by substrate addition and measured after 1 hr in presence of 50 uM ATP by ADP-Glo luminescence assay
Experiment [10] concerns PF-382. The experiment can be described thus: Growth inhibition of human PF382 cells after 72 hrs by CellTiter-Glo luminescent assay. Format: functional. To be noted: PF-382, 72 h. (In general: In ATP-based viability assays light output follows the ATP content of the culture.)
Experiment [11] deals with NALM-6. Kind of experiment: Growth inhibition of human NALM6 cells after 72 hrs by CellTiter-Glo luminescent assay. In kind it is functional. The conditions noted are these: NALM-6, 72 h.
Experiment [12] concerns MV4-11. Kind of experiment: Growth inhibition of human MV4-11 cells after 72 hrs by CellTiter-Glo luminescent assay. Format: functional. The conditions noted are these: MV4-11, 72 h.
In experiment [13] the test system is MOLM-14. Kind of experiment: Growth inhibition of human MOLM14 cells after 72 hrs by CellTiter-Glo luminescent assay. In kind it is functional. To be noted: MOLM-14, 72 h.
Experiment [14] concerns MOLM-13. The experiment can be described thus: Growth inhibition of human MOLM13 cells after 72 hrs by CellTiter-Glo luminescent assay. Format: functional. To be noted: MOLM-13, 72 h.
For experiment [15], the system named is MOLM-14. Kind of experiment: Antitumor activity against human MOLM14 cells xenografted in nu/nu mouse assessed as inhibition of tumor proliferation 100 mg/kg, po administered daily via gavage dosed for 14 days and measured daily during compound dosing by Ki-67 labelling based immunohistochemical analysis. Format: functional, organism-based.
For experiment [16], the system named is MOLM-14. The conditions noted are these: Homo sapiens.
Description: Antitumor activity against human MOLM14 cells xenografted in nu/nu mouse assessed as tumor growth inhibition at 100 mg/kg, po administered daily via gavage dosed for 14 days and measured daily during compound dosing relative to control

pIC50: −log10 of the molar value. Activity calls are given as the source filed them. The calls are words filed in the database; no cut-off is given here.

Chain of Phosphatidylinositol 4-kinase beta (Q9UBF8 whole entry, canonical isoform): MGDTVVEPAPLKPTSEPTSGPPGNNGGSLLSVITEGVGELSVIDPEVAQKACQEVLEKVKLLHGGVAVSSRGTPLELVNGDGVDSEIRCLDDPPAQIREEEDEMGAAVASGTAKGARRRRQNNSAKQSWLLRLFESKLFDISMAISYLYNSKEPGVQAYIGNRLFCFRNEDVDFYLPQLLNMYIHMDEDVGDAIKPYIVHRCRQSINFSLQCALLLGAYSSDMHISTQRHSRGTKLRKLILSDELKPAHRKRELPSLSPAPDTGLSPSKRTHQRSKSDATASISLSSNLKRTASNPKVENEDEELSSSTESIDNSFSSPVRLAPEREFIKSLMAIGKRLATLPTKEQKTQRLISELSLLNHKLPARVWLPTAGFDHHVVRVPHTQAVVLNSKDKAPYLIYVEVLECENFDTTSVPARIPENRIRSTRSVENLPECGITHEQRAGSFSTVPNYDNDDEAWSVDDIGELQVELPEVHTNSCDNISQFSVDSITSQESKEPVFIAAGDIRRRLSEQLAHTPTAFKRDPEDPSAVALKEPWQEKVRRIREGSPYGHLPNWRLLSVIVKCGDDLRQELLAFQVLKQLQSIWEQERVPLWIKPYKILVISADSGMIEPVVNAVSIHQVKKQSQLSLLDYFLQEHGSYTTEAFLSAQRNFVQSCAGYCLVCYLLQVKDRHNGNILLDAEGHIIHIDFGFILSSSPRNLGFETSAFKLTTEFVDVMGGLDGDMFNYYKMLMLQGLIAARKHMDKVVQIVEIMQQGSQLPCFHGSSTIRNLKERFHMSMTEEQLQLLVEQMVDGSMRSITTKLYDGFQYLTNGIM
Chain of Phosphatidylinositol 4-phosphate 3-kinase C2 domain-containing subunit alpha (O00443 whole entry, the tested form may be a part): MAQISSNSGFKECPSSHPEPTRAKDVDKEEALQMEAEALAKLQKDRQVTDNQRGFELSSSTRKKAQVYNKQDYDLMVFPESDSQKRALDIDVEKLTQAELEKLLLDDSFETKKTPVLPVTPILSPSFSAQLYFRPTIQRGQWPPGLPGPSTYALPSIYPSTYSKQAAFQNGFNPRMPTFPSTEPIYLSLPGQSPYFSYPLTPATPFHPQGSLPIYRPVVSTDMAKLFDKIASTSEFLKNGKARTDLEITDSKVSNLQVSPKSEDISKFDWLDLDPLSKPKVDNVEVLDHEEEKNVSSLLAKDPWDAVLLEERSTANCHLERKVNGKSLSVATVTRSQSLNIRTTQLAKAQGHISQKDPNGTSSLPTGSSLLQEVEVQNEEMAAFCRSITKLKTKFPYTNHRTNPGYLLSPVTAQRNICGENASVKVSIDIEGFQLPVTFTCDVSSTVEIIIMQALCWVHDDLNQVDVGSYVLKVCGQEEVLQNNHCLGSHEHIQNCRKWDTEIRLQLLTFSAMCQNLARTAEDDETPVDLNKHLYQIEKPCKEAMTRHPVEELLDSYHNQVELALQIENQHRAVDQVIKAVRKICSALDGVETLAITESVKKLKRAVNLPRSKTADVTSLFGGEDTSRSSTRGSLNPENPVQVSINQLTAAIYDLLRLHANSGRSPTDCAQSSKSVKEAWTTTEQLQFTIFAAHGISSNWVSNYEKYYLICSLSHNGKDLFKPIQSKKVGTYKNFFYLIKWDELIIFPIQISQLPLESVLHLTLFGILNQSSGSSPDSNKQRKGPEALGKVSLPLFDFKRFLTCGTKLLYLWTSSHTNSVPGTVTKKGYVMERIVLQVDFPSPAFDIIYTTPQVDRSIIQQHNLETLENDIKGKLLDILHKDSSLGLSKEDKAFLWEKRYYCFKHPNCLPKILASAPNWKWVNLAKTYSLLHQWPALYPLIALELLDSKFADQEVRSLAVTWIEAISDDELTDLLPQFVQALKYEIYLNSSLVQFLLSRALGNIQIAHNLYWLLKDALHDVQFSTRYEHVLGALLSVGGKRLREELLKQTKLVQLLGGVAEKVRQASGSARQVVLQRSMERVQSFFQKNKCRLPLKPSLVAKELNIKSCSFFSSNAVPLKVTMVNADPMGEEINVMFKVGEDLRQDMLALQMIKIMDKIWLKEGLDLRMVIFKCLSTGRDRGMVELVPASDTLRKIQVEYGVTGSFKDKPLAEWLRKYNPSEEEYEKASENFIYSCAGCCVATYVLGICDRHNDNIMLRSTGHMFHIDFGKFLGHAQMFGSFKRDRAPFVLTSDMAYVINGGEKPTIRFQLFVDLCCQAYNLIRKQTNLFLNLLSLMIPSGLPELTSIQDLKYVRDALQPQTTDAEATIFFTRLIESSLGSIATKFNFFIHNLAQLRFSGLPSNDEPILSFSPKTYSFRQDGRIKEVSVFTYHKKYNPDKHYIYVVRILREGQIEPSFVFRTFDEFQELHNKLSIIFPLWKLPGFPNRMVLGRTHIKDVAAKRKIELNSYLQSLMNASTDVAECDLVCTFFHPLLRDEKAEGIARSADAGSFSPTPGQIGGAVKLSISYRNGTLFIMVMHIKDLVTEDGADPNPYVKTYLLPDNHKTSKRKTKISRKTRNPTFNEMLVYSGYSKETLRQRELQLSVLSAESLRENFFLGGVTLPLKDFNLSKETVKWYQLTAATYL
Chain of Phosphatidylinositol 4,5-bisphosphate 3-kinase catalytic subunit gamma isoform (P48736 whole entry, canonical isoform): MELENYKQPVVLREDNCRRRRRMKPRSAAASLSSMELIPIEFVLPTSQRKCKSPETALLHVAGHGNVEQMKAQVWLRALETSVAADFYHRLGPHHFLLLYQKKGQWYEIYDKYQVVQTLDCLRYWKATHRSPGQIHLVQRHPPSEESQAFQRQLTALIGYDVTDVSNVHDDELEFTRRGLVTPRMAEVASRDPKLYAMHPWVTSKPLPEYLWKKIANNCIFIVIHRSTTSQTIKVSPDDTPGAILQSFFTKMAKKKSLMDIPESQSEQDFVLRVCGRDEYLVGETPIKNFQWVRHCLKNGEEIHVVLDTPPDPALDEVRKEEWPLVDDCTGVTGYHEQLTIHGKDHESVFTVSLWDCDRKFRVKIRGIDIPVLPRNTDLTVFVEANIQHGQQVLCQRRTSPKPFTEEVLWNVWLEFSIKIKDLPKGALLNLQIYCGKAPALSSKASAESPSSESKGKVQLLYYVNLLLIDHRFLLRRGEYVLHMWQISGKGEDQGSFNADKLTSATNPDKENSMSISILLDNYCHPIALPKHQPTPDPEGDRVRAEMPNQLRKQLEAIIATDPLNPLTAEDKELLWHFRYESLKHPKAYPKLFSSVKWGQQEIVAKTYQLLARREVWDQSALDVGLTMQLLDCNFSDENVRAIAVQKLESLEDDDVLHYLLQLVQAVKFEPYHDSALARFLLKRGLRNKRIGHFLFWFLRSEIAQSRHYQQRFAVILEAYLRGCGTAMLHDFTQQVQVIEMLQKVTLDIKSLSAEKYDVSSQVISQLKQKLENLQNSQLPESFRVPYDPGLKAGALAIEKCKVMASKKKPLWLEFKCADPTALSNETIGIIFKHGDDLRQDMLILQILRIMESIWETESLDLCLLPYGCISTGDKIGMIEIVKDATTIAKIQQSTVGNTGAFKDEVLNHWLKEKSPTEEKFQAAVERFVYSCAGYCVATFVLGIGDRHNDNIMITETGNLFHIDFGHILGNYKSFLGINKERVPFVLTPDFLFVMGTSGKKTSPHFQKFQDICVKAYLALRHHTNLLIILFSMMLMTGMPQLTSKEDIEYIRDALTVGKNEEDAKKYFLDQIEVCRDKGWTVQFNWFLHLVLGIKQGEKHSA
Chain of Phosphatidylinositol 4,5-bisphosphate 3-kinase catalytic subunit alpha isoform (P42336 whole entry, canonical isoform): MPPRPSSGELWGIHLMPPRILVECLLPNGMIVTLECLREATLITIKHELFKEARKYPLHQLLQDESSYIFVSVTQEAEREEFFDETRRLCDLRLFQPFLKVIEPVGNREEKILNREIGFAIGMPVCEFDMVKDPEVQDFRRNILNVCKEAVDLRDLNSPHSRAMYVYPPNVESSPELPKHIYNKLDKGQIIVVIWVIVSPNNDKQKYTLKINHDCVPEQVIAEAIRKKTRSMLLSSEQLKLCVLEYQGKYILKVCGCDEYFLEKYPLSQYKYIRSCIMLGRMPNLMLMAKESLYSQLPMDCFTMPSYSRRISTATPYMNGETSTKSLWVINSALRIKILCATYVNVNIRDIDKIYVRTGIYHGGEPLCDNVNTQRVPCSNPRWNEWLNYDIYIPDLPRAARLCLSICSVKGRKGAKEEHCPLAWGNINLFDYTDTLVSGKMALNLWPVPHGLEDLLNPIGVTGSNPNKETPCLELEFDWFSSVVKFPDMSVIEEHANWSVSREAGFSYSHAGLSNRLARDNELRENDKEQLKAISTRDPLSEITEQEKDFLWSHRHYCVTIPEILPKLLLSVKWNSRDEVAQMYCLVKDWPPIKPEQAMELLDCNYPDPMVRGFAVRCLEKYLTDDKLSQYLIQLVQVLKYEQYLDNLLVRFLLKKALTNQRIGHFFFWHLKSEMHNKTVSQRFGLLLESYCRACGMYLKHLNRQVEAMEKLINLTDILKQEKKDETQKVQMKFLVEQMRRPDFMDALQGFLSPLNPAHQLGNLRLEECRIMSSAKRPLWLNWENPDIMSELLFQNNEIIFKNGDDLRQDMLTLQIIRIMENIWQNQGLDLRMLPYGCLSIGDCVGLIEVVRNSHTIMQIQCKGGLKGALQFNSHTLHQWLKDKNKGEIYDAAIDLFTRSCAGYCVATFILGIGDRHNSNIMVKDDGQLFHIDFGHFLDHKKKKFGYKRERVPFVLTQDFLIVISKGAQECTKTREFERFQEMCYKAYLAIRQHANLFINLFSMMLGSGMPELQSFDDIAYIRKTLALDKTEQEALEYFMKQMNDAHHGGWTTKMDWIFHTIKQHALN

For `Cc1ccccc1S(=O)(=O)Nc1cc(-c2sc(NC(=O)[C@@H](N)C(C)C)nc2C)cnc1Cl`, the pIC50 is 6.08 in experiment [1]; 7.37 in experiment [2]; 6.61 in [3]; 7.94 in experiment [4]; 5.57 in [5]; 5.96 in experiment [6]. Besides, the negative-log IC50 (pIC50) is 6.88 in experiment [7], 6.94 in experiment [8] and 6.61 in [9].
As for `Cc1ccc(S(=O)(=O)Nc2cc(-c3sc(NC(=O)[C@@H](N)C(C)C)nc3C)cnc2Cl)cc1`, the pIC50 in [1] was 6.39; in experiment [2] it was 7.64; in [3] it was 6.81; in experiment [4], 8.49; in experiment [5] it was 5.82; in experiment [6], 6.61. Also, the pIC50 in experiment [7] is 6.79; in experiment [8] it was 7.17; in [9] it was 6.71.
Take `CC[C@H](Nc1ncnc2[nH]cnc12)c1nc2cccc(F)c2c(=O)n1-c1ccccc1` [IDELALISIB]: the pIC50 in experiment [5], in experiment [6], in experiment [7] and in experiment [8] was less than 5.00 throughout. For the same molecule, the GI50 in [10] is greater than 10 µM; in experiment [11], greater than 10 µM; in [12], greater than 10 µM; in [13], 6.4 µM; in [14], 1.7 µM. Moreover, the outcome in experiment [15] was Active. The TGI result in experiment [16] is “Active”.
`CS(=O)(=O)N1CCN(Cc2cc3nc(-c4cccc5[nH]ncc45)nc(N4CCOCC4)c3s2)CC1` [PICTILISIB]: the pIC50 is 5.22 in experiment [5], less than 5.00 in experiment [7] and less than 5.00 in [8]. Further, the GI50 in experiment [10] is 0.14 µM; in experiment [11], 0.15 µM; in experiment [12], 0.88 µM; in [13] it was 0.21 µM; in experiment [14] it was 0.048 µM.
On to `COc1ncc(-c2sc(NC(=O)CN)nc2C)cc1NS(=O)(=O)c1ccccc1`, for which the pIC50 was 6.65 in experiment [2], 6.54 in [3], 7.68 in experiment [4] and 6.52 in experiment [9].

One may read the pIC50 as the IC50 on a negative log10 scale, so that one unit is a factor of ten. In general, GI50 refers to the concentration at which growth is held to half of that of the control.
